Assay results as given in PMC3810402 (Journal of the American Chemical Society, 2008).

Assays:
SW480 cells (mutant p53) = assay: Tumor-killing activity by Trypan blue cell count, SW480; format: cell-based; conditions: added daily, 10 μg/mL
HCT116-p53+/+ cells = assay: MTS cell viability assay, HCT116; format: cell-based; conditions: single dose, 10 μg/mL, positive control

With `COc1ccc(C2=N[C@@H](c3ccc(Cl)cc3)[C@@H](c3ccc(Cl)cc3)N2C(=O)N2CCNC(=O)C2)c(OC(C)C)c1` [Nutlin-3] the “effectiveness against SW480” value (SW480 cells (mutant p53)) was “ineffective” and the “HCT116 cell viability (MTS)” value (HCT116-p53+/+ cells) was “a reduction in HCT116 cell viability”.
